According to patent publication US6696484B2, “Method and compositions for regulation of 5-alpha reductase activity” (University of Chicago Office of Technology and Intellectual …, priority 1997, dated 2004):
Where “and” joins values, the source holds several entries; their conditions need not be identical. Equal values may be shown once.

How the values were obtained:
hamster flank organ [1] = experiment: DHT-stimulated growth of the pigmented macules of hamster flank organs; format: in vivo, Syrian golden hamsters; settings: 0.5 μg DHT + 1 mg compound topically daily, 18 days
Procedure: Prepubertal male Syrian golden hamsters, castrated at 4 weeks of age, were obtained from Harlan Sprague-Dawley Co. (Madison, Wis.). Bilateral orchiectomy was performed under anesthesia. The hamsters were housed individually in plastic cages and had free access to Purina rodent chow and water, and were maintained on a 12-h light/12-h dark cycle. Hamsters were used 1-2 weeks after castration and were divided into groups of 4-6 or 9-11 animals. Hair on the lower back of each animal was shaved weekly with an electric hair clipper to expose the flank organs. A treatment solution (5 μl with ethanol as vehicle) was applied topically to the flank organ once a day using a Pipetteman and a polypropylene disposable tip. The treatment solution contained either (a) ethanol alone, (b) an androgen (testosterone or DHT), (c) a test compound, or (d) a combination of an androgen and a test compound. For each hamster, one flank organ was treated while the other organ was not treated. The surface of the flank organ was wiped with an alcohol pad to remove residual compound before each treatment. At the end of each experiment (18 days), animals were killed by CO2 asphyxiation or an intraperitoneal injection of […]. Flank organs from both the treated and untreated sides were examined 1 day after the last treatment by the methods described below. The body weight of each animal was recorded before and after treatment. Experiments were repeated at least twice to assure reproducibility. The “Guide for the care and use of laboratory animals” (NIH publication no. 85-28, revised 1988) and the regulations of the U.S. Department of Agriculture were followed throughout the experiments.
In this study, the growth of the flank organ was determined by measuring the length of the long axis and the short axis of the pigmented spot (pigmented macule) with a caliper with a digital display (Digimatic; Mitutoyo Corporation, Japan). The surface area (in millimeters squared) of the spot was calculated as the product of the long axis and the short axis (Gomez and Frost 1975). The areas of the pigmented spots after treatment with ethanol alone or with test compound (in ethanol) alone were less than 10% of the areas of the pigmented spots after treatment with testosterone alone. These values were deducted from the experimental values and are compared in Tables 8-10. For each experiment, the means and standard error of the means (SEM) of the areas of the untreated and treated macules were computed separately for each treatment group. Within each experiment, an overall F-test (one way ANOVA) was used to test the null hypothesis that the mean sizes of the treated macules were the same in all groups, and Dunnett's multiple range test was used to examine differences between the treatment groups (i.e., green tea catechin+androgen, fatty acid+androgen, EGC derivative+androgen, or fatty acid derivative+androgen) and the control group (androgen treatment only). The Mann-Whitney test was used to examine differences between DHT-treated and the DHT and EGCG-treated groups. P-values <0.05 were taken as indicating statistical significance in all tests (Hochberg and Tamhane 1987).
Each group comprised four to six castrated male hamsters. At the end of the treatment period, the areas of the pigmented macules were determined and are presented as means±SEM in Table 8.
Each group comprised four to six castrated male hamsters. At the end of the treatment period, the areas of the pigmented macules were determined and are expressed as means±SEM as shown in Table 10.

5α-reductase = experiment: In vitro enzyme assay of 5α-reductase referred to in the discussion; format: biochemical; settings: Hiipakka and Liao, unpublished results
hamster flank organ [2] = experiment: Testosterone-stimulated growth of the pigmented macules of hamster flank organs; format: in vivo, Syrian golden hamsters; settings: for Pigmented macule area, androgen alone (control): 0.5 μg testosterone alone topically daily;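 on all read-outs here: prepubertal Syrian golden hamsters castrated at 4 weeks, ethanol vehicle on one flank organ, macule long and short axes gauged by caliper 1 day after final dose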
[3] = target: T1, 5α-reductase type 1 isozyme (Homo sapiens, UniProt P18405); settings: read-out: Km for testosterone, type 1 isozyme; background statement; cited from earlier work
T1 sequence (P18405 1-259): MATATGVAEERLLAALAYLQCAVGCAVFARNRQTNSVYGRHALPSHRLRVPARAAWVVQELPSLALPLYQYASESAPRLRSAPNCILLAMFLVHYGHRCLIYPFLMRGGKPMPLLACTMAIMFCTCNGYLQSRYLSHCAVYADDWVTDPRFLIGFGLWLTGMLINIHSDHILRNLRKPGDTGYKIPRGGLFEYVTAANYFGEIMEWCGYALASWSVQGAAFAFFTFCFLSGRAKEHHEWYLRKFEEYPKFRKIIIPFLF

[4] = target: T2, 5α-reductase type 2 isozyme (Homo sapiens, UniProt P31213); settings: cited from earlier work
T2 sequence (P31213 1-254): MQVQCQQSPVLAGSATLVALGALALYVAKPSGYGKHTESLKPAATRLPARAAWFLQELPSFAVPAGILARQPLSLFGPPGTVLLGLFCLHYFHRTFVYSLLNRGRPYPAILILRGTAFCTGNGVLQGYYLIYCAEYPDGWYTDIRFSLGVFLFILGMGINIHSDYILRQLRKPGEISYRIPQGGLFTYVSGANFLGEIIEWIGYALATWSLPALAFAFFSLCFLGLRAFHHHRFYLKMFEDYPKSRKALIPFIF

LNCaP 104-R2 tumors [5] = experiment: Growth of LNCaP 104-R2 tumors in castrated male nude mice; format: in vivo, BALB/c athymic (nude) mice
MCF-7 tumors = experiment: Growth of MCF-7 tumors in female nude mice; format: in vivo, BALB/c athymic (nude) mice
LNCaP 104-S tumors = experiment: Growth of LNCaP 104-S tumors in nude mice; format: in vivo, BALB/c athymic (nude) mice
[6] = Biological effects of TP implants in nude mice (serum testosterone, seminal vesicle weight, body weight); format: in vivo, BALB/c athymic (nude) mice; settings: 4th week after androgen implantation
Text: (§1) BALB/c athymic (nude) male (LNCaP, PC-3 cell lines) and female (MCF-7 cell line) mice (Taconic Inc., Germantown, N.Y.), 5 to 7 weeks-old, were used. Mice were housed in a pathogen-free environment, four to five mice per cage. Cages (filter top), bedding and water were autoclaved before use. Feed was irradiated Pico Lab Mouse Chow 20 5058 (Purina). All procedures involving animals were approved by the University of Chicago Institutional Animal Care and Use Committee. For the tumor growth studies, 10^6 cells in 0.25 ml of culture medium were mixed with 0.25 ml of Matrigel™ (Collaborative Research, Bedford, Mass.) and were injected subcutaneously into one or both flanks of the mice as described previously (Liao et al., 1995). Tumor size was measured weekly and tumor volume was calculated using the formula L×W×H×0.52 (Janek and Hartman, 1975). Bilateral orchiectomy and subcutaneous implantation or removal of pellets were performed under Metofane anesthesia. Blood samples were obtained by heart puncture or from the orbital plexus while mice were under anesthesia and analyzed for testosterone levels by radioimmunoassay or PSA levels by dual-site reactive enzymatic immunoassay (Tandem®-E PSA, Hybritech, San Diego, Calif.). […] All numerical data are expressed as the average of the values obtained from 4 to 6 tumors and the standard error. […]

PC-3 tumors = experiment: Growth of PC-3 tumors in nude mice; format: in vivo, BALB/c athymic (nude) mice
LNCaP 104-R2 tumors [7] = experiment: Expression of AR, c-myc and PSA by LNCaP 104-R2 tumors (ribonuclease protection assay, serum PSA immunoassay); format: in vivo, BALB/c athymic (nude) mice; settings: after 1 week of TP treatment
Text: as §1

LNCaP 104-S cells = experiment: Proliferation of LNCaP 104-S cells in culture; format: cell-based, human; settings: 0.1 nM R1881 vs androgen-depleted media
Procedure: Androgen-dependent LNCaP 104-S (passage 37) and androgen-independent LNCaP 104-R±sublines were isolated as described previously (Kokontis et al., 1994). The characteristics of these cells in vitro were confirmed before injection into nude mice. […] LNCaP 104-R2 cells grew in charcoal-treated media without additional androgen. Their proliferation was not stimulated but was repressed by 0.1 nM R1881. LNCaP 104-S cells were maintained in DMEM (Gibco) supplemented with 1 nM 5α-DHT and 10% FBS (Summit Biotechnology) and LNCaP 104-R2 cells were maintained in DMEM supplemented with 10% FBS treated with charcoal to remove steroid (Kokontis et al., 1994). PC-3 and MCF-7 cell lines were obtained from the American Type Culture Collection (Rockville, Md.), and were maintained in DMEM supplemented with 10% FBS.

SMILES: O=C1c2ccccc2C(=O)c2c1ccc(O)c2O [Alizarin]
- Inhibition (percent decrease in macule area vs androgen-treated macules) (hamster flank organ [1]): 27%
- Pigmented macule area (hamster flank organ [1]; mean±SEM): 10.00 ± 0.43 mm^2
- IC50 (5α-reductase): 5 to 10 µM
- Inhibition (percent decrease in macule area vs androgen-treated macules) (hamster flank organ [2]; 0.5 μg testosterone + 1 mg compound topically daily, 18 days): 87%
- Pigmented macule area (hamster flank organ [2]; 0.5 μg testosterone + 1 mg compound topically daily, 18 days, castrated male hamsters, mean±SEM): 2.40 ± 0.47 mm^2

SMILES: C[C@]12CC[C@H]3[C@@H](CCC4=CC(=O)CC[C@@]43C)[C@@H]1CC[C@@H]2O [T, testosterone, reference compound]
- Km [3]: > 1 µM
- Pigmented macule area, androgen alone (control) (hamster flank organ [2]; 18 days, mean±SEM): 13.83 ± 1.43 mm^2 and 17.40 ± 1.93 mm^2 and 18.65 ± 0.69 mm^2
- Pigmented macule area, androgen alone (control) (hamster flank organ [2]; 18 days, mean±SEM, listed as testosterone): 15-20 mm^2
- stimulation of flank organ growth relative to the maximum stimulation (hamster flank organ [2]; 0.5 μg testosterone per flank organ per day): 50-70%
- Km ([4]; read-out: Km for testosterone, type 2 isozyme, background statement): < 0.01 µM

SMILES: CC(C)(C)NC(=O)[C@H]1CC[C@H]2[C@@H]3CC[C@H]4NC(=O)C=C[C@]4(C)[C@H]3CC[C@]12C [Finasteride]
- LNCaP 104-R2 tumor size within 4 weeks after finasteride implantation (LNCaP 104-R2 tumors [5]; finasteride (2.5 mg) pellets at 7th week in mice with TP since 4th week, from 84±15 (SE) mm^3): 593±144 mm^3
- effect on growth of MCF-7 tumors (MCF-7 tumors): did not affect
- affinity for isozyme 2 relative to isozyme 1 ([4]; competitive inhibitor, Russell and Wilson, 1994): 30 fold
- reduction of LNCaP 104-S tumor size (LNCaP 104-S tumors; finasteride treatment, normal nude mice, within 4 weeks): 45%

SMILES: CCC(=O)O[C@H]1CC[C@H]2[C@@H]3CCC4=CC(=O)CC[C@]4(C)[C@H]3CC[C@]12C [TP, testosterone propionate]
- body weight of nude mice [6]: no loss
- increase of seminal vesicle weight ([6]; vs castrates without TP): about 10 times
- effect on growth of AR negative PC-3 tumors (PC-3 tumors): did not affect
- LNCaP 104-R2 tumor size within 4 weeks after removal of TP (LNCaP 104-R2 tumors [5]; TP implanted at 4th week, removed at 7th week, regrew from 96±26 (SE) mm^3): 641±157 mm^3
- LNCaP 104-R2 tumor size four weeks after TP implantation (LNCaP 104-R2 tumors [5]; TP implanted at 7th week, from 884±64 (SE) mm^3): 208±33 mm^3
- effect on growth of MCF-7 tumors (MCF-7 tumors): not affected
- LNCaP 104-S tumor size 4 weeks after castration with TP implant (LNCaP 104-S tumors; TP implanted at the time of castration, from 299±27 (SE) mm^3, ±SE): 965±166 mm^3
- increase of serum PSA (LNCaP 104-R2 tumors [7]): more than 10 fold
- increase of the level of PSA mRNA in tumor samples (LNCaP 104-R2 tumors [7]): more than 10 fold

SMILES: C[C@]1(O)CC[C@H]2[C@@H]3CCC4=CC(=O)CCC4=C3C=C[C@@]21C [R1881, 17 β-hydroxy-17 α-methyl-estra-4,9,11-trien-3-one]
- increase of proliferation of LNCaP 104-S cells (LNCaP 104-S cells): 10-13 fold
